These results are taken from paper PMC6332318, “Synthetic Development of New 3-(4-Arylmethylamino)butyl-5-arylidene-rhodanines under Microwave Irradiation and Their Effects on Tumor Cell Lines and against Protein Kinases” (Molecules, 2015).

Data set [1] deals with Caco 2 cells (differentiating colorectal adenocarcinoma). Put plainly: in vitro inhibition of cell proliferation / survival assay. Conditions: for viability at 25 µM / IC50: Homo sapiens; for viability at 25 µM / % of Survival: measured at 25 μM after 48 h, single dose, triplicate; for IC50: 48 h, average of three assays, standard error ± 0.5 μM. Type of data set: cell-based. The protocol:
(§1) As an initial effort to investigate their in vitro bioactivity, the new synthesized 3-(4-arylmethylamino)butyl-2-thioxo-1,3-thiazolidine-4-one 9a–n and also their precursors 6a–f were evaluated for their in vitro inhibition of cell proliferation. For this study, we used a panel of seven representative tumoral cell lines, namely HuH7 D12 (differential hepato cellular carcinoma), Caco 2 (differentiating colorectal adenocarcinoma), MDA-MBD231 ([…]), HCT 116 (actively proliferating colorectal adenocarcinoma), PC3 (prostate carcinoma), NCI-H727 (lung carcinoma), HaCat keratinocyte and, diploid skin fibroblasts as normal cell lines for control.
(§2) Skin diploid fibroblastic cells were provided by BIOPREDIC International Company (Rennes, France). Caco2 (Ref ECACC: 86010202), Huh-7D12 (Ref ECACC: 01042712), MDA-MB-231 (Ref ECACC: 92020424), HCT-116 (Ref ECACC: 91091005), PC3 (Ref ECACC: 90112714), NCI-H727 (Ref ECACC: 94060303) cell lines were obtained from the ECACC collection and HaCaT (from Cell Lines Service, Eppelheim, Germany). Cells were grown according to ECACC recommendations. The toxicity test of the compounds on these cells was as follows: 2 × 10^3 cells for HCT-116 cells or 4 × 10^3 for the other cells were seeded in 96 multiwell plates in triplicate and left for 24 h for attachment, spreading and growing. Then, cells were exposed for 48 h to increasing concentrations of the compounds, ranging from 0.1 to 25 μM in a final volume of 120 μL of culture medium. Cells were fixed in cooled solution of 90% ethanol/5% acetic acid, nuclei were stained with Hoechst 3342 (Sigma) and counted using automated imaging analysis (Cellomics Arrayscan VTI/HCS Reader, Thermo/Scientific, Waltham, MA, USA). The IC50 were graphically determined.

Data set [2] deals with HCT 116 cells (actively proliferating colorectal adenocarcinoma). Described as above. Format: cell-based. Conditions: for viability at 25 µM / IC50: Homo sapiens; for viability at 25 µM / % of Survival: measured at 25 μM after 48 h, single dose, triplicate; for IC50: 48 h, average of three assays, standard error ± 0.5 μM. The procedure:
as §1, §2

The test system of a further data set is HaCat keratinocyte. Described as above. Format: cell-based. Conditions: for viability at 25 µM / IC50: Homo sapiens; for viability at 25 µM / % of Survival: measured at 25 μM after 48 h, single dose, triplicate; for IC50: HaCaT, 48 h, average of three assays, standard error ± 0.5 μM. The protocol: as §1, §2
The test system of data set [3] is Huh7 D12 cells (differential hepato cellular carcinoma). The description is as above. Type of data set: cell-based. Conditions: for viability at 25 µM: Huh-7D12, measured at 25 μM after 48 h; for viability at 25 µM / % of Survival: single dose, triplicate; for % of Survival: measured at 25 μM after 48 h; for IC50: Huh-7D12, 48 h, average of three assays, standard error ± 0.5 μM. The procedure: as §1, §2

The test system of the next data set is MDA-MB231 cells. The description is as above. Format: cell-based. Conditions: for viability at 25 µM / IC50: Homo sapiens; for viability at 25 µM: MDA-MB-231, measured at 25 μM after 48 h; for viability at 25 µM / % of Survival: single dose, triplicate; for % of Survival: measured at 25 μM after 48 h; for IC50: MDA-MB-231, 48 h, average of three assays, standard error ± 0.5 μM. The procedure:
as §1, §2

In data set [4] the test system is NCI-H727 cells (lung carcinoma). The data set is described as above. Type of data set: cell-based. Conditions: for viability at 25 µM: Homo sapiens, read-out: % of Survival. The protocol: as §1, §2
Data set [5] has as its system PC3 cells (prostate carcinoma). Described as above. Type of data set: cell-based. Conditions: for viability at 25 µM: PC-3, measured at 25 μM after 48 h; for viability at 25 µM / % of Survival: single dose, triplicate; for % of Survival: measured at 25 μM after 48 h. The procedure: as §1, §2
The next data set concerns diploid skin fibroblasts. Put plainly: in vitro inhibition of cell proliferation / survival assay, normal cells control. Format: cell-based. Conditions: for viability at 25 µM: read-out: % of Survival. The procedure:
as §1, §2

[6] abbreviates: NCI-H727, measured at 25 μM after 48 h, single dose, triplicate.
The mark [7] stands for this setting: Skin fibroblast, Fibroblasts, measured at 25 μM after 48 h, single dose, triplicate.
Setting [8] is: Fibroblasts, measured at 25 μM after 48 h, single dose, triplicate.

Where two headings read alike, the source gives them in different places.

`Cl.NCCCCNCc1ccccc1` [Compound 6a, N-1-Phenylmethyl-butane-1,4-diamine hydrochloride] displayed a melting point of more than 260 °C. Besides, the viability at 25 µM in data set [1] was 114%. Further, the viability at 25 µM in data set [2] came to 112%. In addition, the viability at 25 µM in the data set with HaCat keratinocyte was 97%. The viability at 25 µM in data set [3] stood at 102%. The viability at 25 µM in the data set with MDA-MB231 cells turned out to be 104%. Moreover, the viability at 25 µM in data set [4] (setting [6]) amounted to 97%. Besides, the viability at 25 µM in [5] (Homo sapiens) turned out to be 100%. In the data set on diploid skin fibroblasts (setting [7]), the viability at 25 µM is 93%.

`COc1ccc(CNCCCCN2C(=O)/C(=C/c3ccc4c(c3)OCCO4)SC2=S)cc1` [Compound 9c, (5Z)3-[4-(4-Methoxyphenylmethylamino)butyl]-5-(2,3-dihydro-1,4-benzodioxin-6-ylmethylene)-2-thioxo-1,3-thiazolidin-4-one] had a melting point of 255 to 261 °C. For the same compound, the viability at 25 µM in data set [1] is 93%. Besides, the viability at 25 µM in data set [2] is 97%. Moreover, the viability at 25 µM in the data set on HaCat keratinocyte came to 101%. For the same compound, the viability at 25 µM in data set [3] worked out at 88%. Besides, the viability at 25 µM in the data set on MDA-MB231 cells is 92%. Besides, the viability at 25 µM in [4] (setting [6]) is 95%. Also, the viability at 25 µM in data set [5] (Homo sapiens) is 97%. For the same compound, the viability at 25 µM in the data set on diploid skin fibroblasts (setting [7]) came out at 102%.

Turning to `O=C1/C(=C/c2ccc3c(c2)OCO3)SC(=S)N1CCCCNCc1ccc2c(c1)OCCO2` [Compound 9l, (5Z)-[4-(2,3-Dihydro-benzo[1,4]dioxin-6-ylmethylamino)butyl]-5-(1,3-benzodioxol-5-ylmethylene)-2-thioxo-1,3-thiazolidin-4-one], the viability at 25 µM came to 105% in data set [1]; 106% in [2]; 95% in the data set on HaCat keratinocyte; 90% in data set [3]; 98% in the data set on MDA-MB231 cells; 96% in data set [4] (setting [6]). Moreover, the results for the viability at 25 µM (in data set [5] (Homo sapiens); with diploid skin fibroblasts (setting [7])) were 93% and 128%, respectively.

For the compound `COc1ccc(CNCCCCN)cc1.Cl` [Compound 6b, N-1-(4-Methoxy-phenylmethyl)-butane1,4-diamine hydrochloride], the “% of Survival” value is 114% in data set [1]; 112% in data set [2]; 106% with HaCat keratinocyte; 107% in [3]; 100% with MDA-MB231 cells; 86% in [4] (setting [6]). Further, the “% of Survival” value (in data set [5]; in the data set with diploid skin fibroblasts (setting [8])) was 100% throughout.

Regarding `Cl.NCCCCNCc1ccc2c(c1)OCCO2` [Compound 6f, N-1-(2,3-Dihydro-benzo[1,4]dioxin-6-ylmethyl)-butane-1,4-diamine hydrochloride], the “% of Survival” value in data set [1] amounted to 109%; in data set [2], 96%; with HaCat keratinocyte, 94%; in data set [3], 88%; in the data set on MDA-MB231 cells, 99%; in data set [4] (setting [6]), 92%. The “% of Survival” value amounted to 97% in data set [5] and 105% with diploid skin fibroblasts (setting [8]).

With `COc1cccc2c1C(=O)c1c(O)c3c(c(O)c1C2=O)C[C@@](O)(C(=O)CO)C[C@@H]3O[C@H]1C[C@H](N)[C@H](O)[C@H](C)O1` [Doxorubicine, reference compound], the IC50 in data set [1] worked out at 30 nM; in [2], 30 nM; in the data set with HaCat keratinocyte it was 20 nM; in data set [3] it was 30 nM; with MDA-MB231 cells, 10 nM. In addition, the viability at 25 µM stood at 43% in data set [1]; 22% in data set [2]; 88% in the data set on HaCat keratinocyte; 63% in data set [3]; 82% in the data set with MDA-MB231 cells; 65% in [4] (setting [6]). The figures for the viability at 25 µM (in data set [5] (Homo sapiens); with diploid skin fibroblasts (setting [7])) were 34% and 74%, respectively.

As to `CC(=O)O[C@H]1C(=O)[C@@]2(C)[C@H]([C@H](OC(=O)c3ccccc3)[C@]3(O)C[C@H](OC(=O)[C@H](O)[C@@H](NC(=O)c4ccccc4)c4ccccc4)C(C)=C1C3(C)C)[C@]1(OC(C)=O)CO[C@@H]1C[C@@H]2O` [Taxol, reference compound], the 50% inhibitory concentration (IC50) in [1] is 40 nM; in [2] it was less than 1 nM; in the data set on HaCat keratinocyte it was 1 nM; in data set [3] it was 3 nM; in the data set on MDA-MB231 cells, 40 nM; in [5] (Homo sapiens, PC-3, 48 h, average of three assays, standard error ± 0.5 μM), less than 1 nM. The compound further showed an IC50 in the data set with diploid skin fibroblasts (Skin fibroblast, Fibroblasts, 48 h, average of three assays, standard error ± 0.5 μM) of more than 25000 nM. The viability at 25 µM in [1] was determined as 29%; in data set [2], 9%; in the data set on HaCat keratinocyte, 11%; in data set [3], 36%; in the data set on MDA-MB231 cells it was 41%; in data set [4] (setting [6]), 59%. For the same compound, the viability at 25 µM in data set [5] (Homo sapiens) is 35%; with diploid skin fibroblasts (setting [7]), 76%.

For `COc1cccc(CNCCCCN2C(=O)/C(=C/c3ccc4c(c3)OCO4)SC2=S)c1` [Compound 9e, (5Z)3-[4-(3-Methoxyphenylmethylamino)butyl]-5-(1,3-benzodioxol-5-ylmethylene)-2-thioxo-1,3-thiazolidin-4-one], the viability at 25 µM in data set [1] came to 97%; in data set [2] it was 99%; in the data set on HaCat keratinocyte, 86%; in data set [3], 74%; with MDA-MB231 cells, 97%; in data set [4] (setting [6]), 102%. Also, the figures for the viability at 25 µM (in data set [5] (Homo sapiens); in the data set on diploid skin fibroblasts (setting [7])) were 85% and 122%, respectively.

For `COc1cccc(CNCCCCN)c1.Cl` [Compound 6d, N-1-(3-Methoxy-phenylmethyl)-butane-1,4-diamine hydrochloride], the “% of Survival” value in data set [1] is given as 111%; in [2], 111%; in the data set with HaCat keratinocyte, 96%; in data set [3], 107%; in the data set on MDA-MB231 cells it was 99%; in data set [4] (setting [6]), 92%. The results for the “% of Survival” value (in [5]; with diploid skin fibroblasts (setting [8])) were 98% and 93%, respectively.

For `CC[C@H](CO)Nc1nc(NCc2ccccc2)c2ncn(C(C)C)c2n1` [Roscovitine, reference compound], the viability at 25 µM in data set [4] (NCI-H727, 48 h) worked out at 30%; with diploid skin fibroblasts (Skin fibroblast, 48 h), 53%.

Regarding `Cl.NCCCCNCc1ccccc1Cl` [Compound 6c, N-1-(2-Chloro-phenylmethyl)-butane1,4-diamine hydrochloride], the “% of Survival” value in data set [1] came to 93%; in [2], 98%; in the data set on HaCat keratinocyte it was 80%; in data set [3], 82%; in the data set with MDA-MB231 cells it was 102%; in data set [4] (setting [6]) it was 100%. In addition, the “% of Survival” value in data set [5] came to 96%; in the data set with diploid skin fibroblasts (setting [8]), 84%.

Take `O=C1/C(=C/c2ccc3c(c2)OCCO3)SC(=S)N1CCCCNCc1ccc2c(c1)OCCO2` [Compound 9m, (5Z)3-[4-(2,3-Dihydro-benzo[1,4]dioxin-6-ylmethylamino)butyl]-5-(2,3-dihydro-benzo[1,4]dioxin-6-ylmethylene)-2-thioxo-1,3-thiazolidin-4-one]: the viability at 25 µM came to 107% in data set [1]; 103% in [2]; 94% in the data set with HaCat keratinocyte; 97% in data set [3]; 99% with MDA-MB231 cells; 98% in data set [4] (setting [6]). For the same compound, the viability at 25 µM in data set [5] (Homo sapiens) is 96%; with diploid skin fibroblasts (setting [7]), 149%.
